# Tested on: Respiratory Syncytial Virus
# Test: microbe, parasite or virus in culture
# Assay type: cell-based
# Conditions: for EC50: human respiratory syncytial virus, 168 h
# Description: In vitro Screening for Activity against Respiratory Syncytial Virus.
# The percent protection against cytopathology caused by viruses (antiviral activity or EC50) achieved by tested compounds and their cytotoxicity (CC50) are both calculated from dose-response curves. The selectivity of the antiviral effect is represented by the selectivity index (SI), calculated by dividing the CC50 (cytotoxic dose for 50% of the cells) by the EC50 (antiviral activity for 50% of the cells).
# Automated tetrazolium-based colorimetric assays were used for determination of EC50 and CC50 of test compounds. Flat-bottom, 96-well plastic microtiter trays were filled with 180 μl of Eagle's Basal Medium, supplemented with 5% FCS (0% for FLU) and 20 mM Hepes buffer. Subsequently, stock solutions (7.8× final test concentration) of compounds were added in 45 μl volumes to a series of triplicate wells so as to allow simultaneous evaluation of their effects on virus- and mock-infected cells. Five five-fold dilutions were made directly in the microtiter trays using a robot system. Untreated virus controls, and HeLa cell controls were included in each test. Approximately 100 TCID50 of Respiratory Syncytial Virus was added to two of the three rows in a volume of 50 μl. The same volume of medium was added to the third row to measure the cytotoxicity of the compounds at the same concentrations as those used to measure the antiviral activity. After two hours of incubation, a suspension (4×10^5 cells/ml) of HeLa cells was added to all wells in a volume of 50 μl. The cultures were incubated at 37° C. in a 5% CO2 atmosphere. Seven days after infection the cytotoxicity and the antiviral activity was examined spectrophotometrically. To each well of the microtiter tray, 25 μl of a solution of MTT (3-(4,5-dimethylthiazol-2-yl)-2,5-diphenyltetrazolium bromide) was added. The trays were further incubated at 37° C. for 2 hours, after which the medium was removed from each cup. Solubilization of the formazan crystals was achieved by adding 100 μl 2-propanol. Complete dissolution of the formazan crystals were obtained after the trays have been placed on a plate shaker for 10 min. Finally, the absorbances were read in an eight-channel computer-controlled photometer (Multiskan MCC, Flow Laboratories) at two wavelengths (540 and 690 nm). The absorbance measured at 690 nm was automatically subtracted from the absorbance at 540 nm, so as to eliminate the effects of non-specific absorption.
# [1] = RSV-infected HeLa cells, MTT readout seven days after infection, −log of EC50 in molar units
# [2] = pEC50 (−log of EC50 when expressed in molar units), protection against RSV cytopathology
smiles,measurement,setting,value
Cc1ccc(O)c(Cn2c(NCCCN3CCOCC3)nc3ccc(CN(CCO)c4ccccc4)cc32)n1 [Compound 97],Activity,[1],8.5
C#Cc1cccc(N(CCO)Cc2ccc3nc(NCCCN4CCOCC4)n(Cc4nc(C)ccc4O)c3c2)c1 [Compound 99],Activity,[1],8.5
Cc1cccc(N(CCN(C)C)Cc2ccc3nc(NCCCN4CCOCC4)n(Cc4nc(C)ccc4O)c3c2)c1 [Compound 100],Activity,[1],8.4
Cc1ccc(O)c(Cn2c(NCCCN3CCOCC3)nc3ccc(CN(CC(N)=O)c4ccccc4CCO)cc32)n1 [Compound 101],Activity,[1],8.3
Cc1ccc(O)c(Cn2c(NCCCN3CCOCC3)nc3ccc(CN(CCN4CCOCC4)c4ccccc4CCO)cc32)n1 [Compound 103],Activity,[1],8.2
Cc1ccc(O)c(Cn2c(NCCCN3CCOCC3)nc3ccc(CN(c4ccccc4)c4ccc(O)cc4)cc32)n1 [Compound 106],Activity,[1],8.1
Cc1ccc(O)c(Cn2c(NCCCN3CCOCC3)nc3ccc(CN(CCO)c4ccccc4CCO)cc32)n1 [Compound 107],Activity,[1],8.1
Cc1ccc(O)c(Cn2c(NCCCN3CCOCC3)nc3ccc(CNc4ccccc4CN)cc32)n1 [Compound 108],Activity,[1],8
Cc1ccc(O)c(Cn2c(NCCCN3CCOCC3)nc3ccc(CN(c4ccccc4)c4cccc(O)c4)cc32)n1 [Compound 109],Activity,[1],7.9
Cc1ccc(O)c(Cn2c(NCCCN3CCOCC3)nc3ccc(CN(CCO)c4ccccc4C)cc32)n1 [Compound 110],Activity,[1],7.8
Cc1cccc(NCc2ccc3nc(NC4CCN(CCN5CCOCC5)CC4)n(Cc4nc(C)ccc4O)c3c2)c1 [Compound 164],Activity,[1],7.5
Cc1ccc(O)c(Cn2c(NC3CCN(CCN4CCOCC4)CC3)nc3c(C)cccc32)n1 [Compound 166],Activity,[1],6.8
Cc1ccc(O)c(Cn2c(NC3CCN(CCN4CCOCC4)CC3)nc3cc(/C=C/c4ccccc4)ccc32)n1 [Compound 167],Activity,[1],6.7
Cc1ccc(O)c(Cn2c(NC3CCN(CCN4CCOCC4)CC3)nc3ccc(CO)cc32)n1 [Compound 168],Activity,[1],6.5
"Cc1cc(C)cc(NCc2ccc3c(c2)nc(NCCCN2CCCOCC2)n3Cc2nc(C)ccc2O)c1 [Compound 174, 2-[5-[(3,5-Dimethyl-phenylamino)-methyl]-2-(3-[1,4]oxazepan-4-yl-propylamino)-benzoimidazol-1-ylmethyl]-6-methyl-pyridin-3-ol]",EC50,[1],2.51 nM
Cc1ccc(O)c(Cn2c(NCCCN3C[C@@H](C)O[C@@H](C)C3)nc3ccc(CO)cc32)n1 [Compound 175],Activity,[1],6.2
Cc1ccc(O)c(Cn2c(NCCCN3CC(C)OC(C)C3)nc3ccc(CO)cc32)n1 (centres unmarked) [Compound 177],Activity,[1],5.7
"Cc1cc(C)cc(N(CCCC(N)=O)Cc2ccc3nc(NCC(O)CN4CCOCC4)n(Cc4nc(C)ccc4O)c3c2)c1.Cl (centres unmarked) [Compound 178, 4-{(3,5-Dimethyl-phenyl)-[3-(3-hydroxy-6-methyl-pyridin-2-ylmethyl)-2-(2-hydroxy-3-morpholin-4-yl-propylamino)-3H-benzoimidazol-5-ylmethyl]-amino}-butyramide, HCl salt]",Activity,[1],9.6
"Cc1cc(C)cc(NCc2ccc3nc(NCCCN4CCOC(CCO)C4)n(Cc4nc(C)ccc4O)c3c2)c1 (centres unmarked) [Compound 181, 2-(6-[(3,5-Dimethyl-phenylamino)-methyl]-2-{3-[2-(2-hydroxy-ethyl)-morpholin-4-yl]-propylamino}-benzoimidazol-1-ylmethyl)-6-methyl-pyridin-3-ol]",EC50,[1],6.31 nM
Cc1ccc(O)c(Cn2c(NCCCN3CCSCC3)nc3ccc(CO)cc32)n1 [Compound 182],Activity,[1],7.1
"COc1ccc(C)nc1Cn1c(NCCCN2CCOCC2)nc2ccc(CN(CCCC(N)=O)c3cc(C)cc(C)c3)cc21 [Compound 210, -{(3,5-Dimethyl-phenyl)-[3-(3-methoxy-6-methyl-pyridin-2-ylmethyl)-2-(3-morpholin-4-yl-propylamino)-3H-benzoimidazol-5-ylmethyl]-amino}-butyramide]",Activity,[2],9
OCCCc1ccc(C(F)(F)F)cc1NCc1ccc2nc(NCCCN3CCOCC3)n(Cc3ncccc3O)c2c1 [Compound 216],Activity,[2],8.7
OCCCc1ccc(C(F)(F)F)cc1NCc1ccc2nc(NCCCN3CCOCC3)n(Cc3cc(Br)ccc3O)c2c1 [Compound 217],Activity,[2],8.7
COc1ccc(C)nc1Cn1c(NCCCN2CCOCC2)nc2ccc(CNc3cc(C)ccc3CCO)cc21 [Compound 220],Activity,[2],8.6
Cn1cnc2c(Cn3c(NCCCN4CCOCC4)nc4ccc(CNc5ccccc5CCCO)cc43)cccc21 [Compound 224],Activity,[2],8.5
Cc1ccc(CCCO)c(NCc2ccc3nc(NCCCN4CCOCC4)n(Cc4ccccc4O)c3c2)c1 [Compound 227],Activity,[2],8.5
Cc1ccc(CCO)c(NCc2ccc3nc(NCCCN4CCOCC4)n(Cc4cccc5c4ncn5C)c3c2)c1 [Compound 229],Activity,[2],8.4
Cn1cnc2c(Cn3c(NCCCN4CCOCC4)nc4ccc(CNc5cc(Br)ccc5CCCO)cc43)cccc21 [Compound 232],Activity,[2],8.4
C#Cc1ccc(CCO)c(NCc2ccc3nc(NCCCN4CCOCC4)n(Cc4cccc5cccnc45)c3c2)c1 [Compound 235],Activity,[2],8.3
C#Cc1ccc(CCO)c(NCc2ccc3nc(NCCCN4CCOCC4)n(Cc4cccc5c4ncn5C)c3c2)c1 [Compound 236],Activity,[2],8.1
Cn1cnc2c(Cn3c(NCCCN4CCOCC4)nc4ccc(CNc5ccccc5CCO)cc43)cccc21 [Compound 237],Activity,[2],7.9
Cn1cnc2c(Cn3c(NCCCN4CCOCC4)nc4ccc(CNc5ccccc5CCC(N)=O)cc43)cccc21 [Compound 238],Activity,[2],7.9
COc1ccc(C)nc1Cn1c(NCCCN2CCOCC2)nc2ccc(CNc3ccccc3CCCO)cc21 [Compound 239],Activity,[2],7.9
COc1ccc(C)nc1Cn1c(NCCCN2CCOCC2)nc2ccc(CN(CCO)c3cc(C)cc(C)c3)cc21 [Compound 240],Activity,[2],7.9
Cn1cnc2c(Cn3c(NCCCN4CCOCC4)nc4ccc(CNc5cc(C(F)(F)F)ccc5CCCO)cc43)cccc21 [Compound 241],Activity,[2],7.9
Cn1cnc2c(Cn3c(NCCCN4CCOCC4)nc4ccc(CNc5ccccc5CCN5CCOCC5)cc43)cccc21 [Compound 242],Activity,[2],7.8
Cc1nc(C)c(Cn2c(NCCCN3CCOCC3)nc3ccc(CNc4ccccc4CCCO)cc32)nc1C [Compound 243],Activity,[2],7.8
Cc1ccc(CCCO)c(NCc2ccc3nc(NCCCN4CCOCC4)n(Cc4cccc(C)n4)c3c2)c1 [Compound 274],Activity,[2],7.2
Cc1ccc(CCO)c(NCc2ccc3nc(NCCCN4CCOCC4)n(Cc4cccc(C)n4)c3c2)c1 [Compound 275],Activity,[2],7.2
Cc1ccc(C)c(NCc2ccc3c(c2)nc(NCCCN2CCOCC2)n3C2CCCc3nc(C)c(C)nc32)c1 (centres unmarked) [Compound 276],Activity,[2],7.2
Cc1cccc(NCc2ccc3nc(NCCCN4CCOCC4)n(Cc4cccc5c4ncn5C)c3c2)c1CCO [Compound 277],Activity,[2],7.1
Cc1cc(C)cc(N(CCO)Cc2ccc3nc(NCCCN4CCOCC4)n(Cc4cccc(Br)n4)c3c2)c1.Cl [Compound 278],Activity,[2],7.1
COc1ccc(C)nc1Cn1c(NCCCN2CCOCC2)nc2ccc(CNc3ccccc3CO)cc21 [Compound 279],Activity,[2],7.1
COc1ccc(C)nc1Cn1c(NCCCN2CCOCC2)nc2ccc(CNc3ccc(C)cc3CO)cc21 [Compound 280],Activity,[2],7.1
Cc1cc(C)cc(N(CCO)Cc2ccc3nc(NCCCN4CCOCC4)n(Cc4cccc(C)n4)c3c2)c1 [Compound 281],Activity,[2],7.1
Cc1cccc(NCc2ccc3nc(NCCCN4CCOCC4)n(Cc4nc(C)c(C)nc4C)c3c2)c1CCO [Compound 282],Activity,[2],7.1
Cc1cccc(NCc2ccc3nc(NCCCN4CCOCC4)n(Cc4nc(C)c(C)nc4C)c3c2)c1 [Compound 283],Activity,[2],7.1
Cc1ccc(NCc2ccc3nc(NCCCN4CCOCC4)n(Cc4nc(C)c(C)nc4C)c3c2)c(CO)c1 [Compound 284],Activity,[2],7.1
Cc1cccc(NCc2ccc3nc(NCCCN4CCOCC4)n(Cc4nc(C)c(C)nc4C)c3c2)c1CO [Compound 285],Activity,[2],7.1
Cc1nc2c(nc1C)C(n1c(NCCCN3CCOCC3)nc3cc(CNc4ccccc4CCO)ccc31)CCC2 (centres unmarked) [Compound 286],Activity,[2],7.1
Cc1nc2c(nc1C)C(n1c(NCCCN3CCOCC3)nc3cc(CNc4ccccc4CO)ccc31)CCC2 (centres unmarked) [Compound 287],Activity,[2],7.1
Cn1cnc2c(Cn3c(NCCCN4CCOCC4)nc4ccc(CNc5ccccc5C(N)=O)cc43)cccc21 [Compound 288],Activity,[2],7
Cc1nc(C)c(Cn2c(NCCCN3CCOCC3)nc3ccc(CNc4cc(Cl)cc(Cl)c4)cc32)nc1C [Compound 289],Activity,[2],7

# From patent US7449463B2, “Morpholinyl containing benzimidazoles as inhibitors of respiratory syncytial virus replication” (Tibotec Pharmaceuticals Ltd., priority 2003, dated 2008)
